Reference: patent US10633417B2 (priority 2013, dated 2020)
pIC50: −log10 of the molar value.

Experiments:
human α9α10 nAChR = human α9α10 nAChR (Homo sapiens, UniProt Q9GZZ6+Q9UGM1); experiment: cell-based; format: cell-based
Sprague Dawley rats = conditions: rat, in vivo
Sprague-Dawley rats [1] = conditions: rat, in vivo
Sprague-Dawley rats [2] = conditions: rat, in vivo; remark: listed apart in the source
Sprague-Dawley rats [3] = conditions: rat, in vivo; remark: listed apart in the source
Sprague-Dawley rats [4] = conditions: rat, in vivo; remark: listed apart in the source

human α9α10 nAChR, sequence (Q9UGM1 26-479 limits assumed): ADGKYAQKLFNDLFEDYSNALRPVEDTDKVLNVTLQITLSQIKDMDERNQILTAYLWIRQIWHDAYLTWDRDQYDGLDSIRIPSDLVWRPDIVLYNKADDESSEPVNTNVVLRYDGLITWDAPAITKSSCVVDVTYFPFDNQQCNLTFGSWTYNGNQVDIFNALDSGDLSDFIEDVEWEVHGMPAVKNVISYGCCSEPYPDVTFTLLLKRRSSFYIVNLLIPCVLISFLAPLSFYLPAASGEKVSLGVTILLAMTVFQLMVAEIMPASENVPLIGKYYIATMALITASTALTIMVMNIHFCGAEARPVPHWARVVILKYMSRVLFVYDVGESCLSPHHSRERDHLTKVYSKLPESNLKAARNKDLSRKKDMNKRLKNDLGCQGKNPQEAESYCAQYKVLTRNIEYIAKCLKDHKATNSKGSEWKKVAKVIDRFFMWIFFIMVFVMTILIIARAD
human α9α10 nAChR, sequence (Q9GZZ6 25-450 limits assumed): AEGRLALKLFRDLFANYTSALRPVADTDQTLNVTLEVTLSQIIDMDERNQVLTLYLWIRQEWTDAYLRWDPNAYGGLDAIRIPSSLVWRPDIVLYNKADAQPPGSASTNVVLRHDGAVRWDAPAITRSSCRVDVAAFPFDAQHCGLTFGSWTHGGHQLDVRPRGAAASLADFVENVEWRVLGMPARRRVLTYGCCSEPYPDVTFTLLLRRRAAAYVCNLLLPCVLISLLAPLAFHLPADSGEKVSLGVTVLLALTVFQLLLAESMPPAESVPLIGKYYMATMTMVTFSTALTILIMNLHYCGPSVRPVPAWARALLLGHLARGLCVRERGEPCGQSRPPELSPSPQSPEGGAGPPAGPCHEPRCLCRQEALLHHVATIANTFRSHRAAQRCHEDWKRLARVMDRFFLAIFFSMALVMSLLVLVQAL

| Molecule | Fold improvement (human α9α10 nAChR) | pIC50 (human α9α10 nAChR) | also measured |
| --- | --- | --- | --- |
| C[C@@H](O)[C@@H]1NC(=O)[C@@H]2CSSC[C@@H](C(=O)N[C@@H](CCCNC(=N)N)C(=O)N[C@@H](CCCNC(=N)N)C(=O)N[C@@H](CCCNC(=N)N)C(=O)O)NC(=O)[C@H](CCC(N)=O)NC(=O)[C@H](Cc3ccc(O)c(I)c3)NC(=O)[C@H](CCCNC(N)=O)NC(=O)[C@H](CSSC[C@H](NC(=O)CN)C(=O)N2)NC(=O)[C@H](CCCNC(=N)N)NC(=O)[C@@H]2CCCN2C(=O)[C@H](CC(=O)O)NC1=O [Analog 4] | 109 fold | 8.34 |  |
| C[C@@H](O)[C@@H]1NC(=O)[C@@H]2CSSC[C@@H](C(=O)N[C@@H](Cc3ccc(O)cc3)C(=O)N[C@@H](CCCNC(=N)N)C(=O)N[C@@H](CCCNC(=N)N)C(=O)O)NC(=O)[C@H](CCC(N)=O)NC(=O)[C@H](Cc3ccc(O)c(I)c3)NC(=O)[C@H](CCCNC(N)=O)NC(=O)[C@H](CSSC[C@H](NC(=O)CN)C(=O)N2)NC(=O)[C@H](CCCNC(=N)N)NC(=O)[C@@H]2CCCN2C(=O)[C@H](CC(=O)O)NC1=O [Analog 5] | 325 fold | 8.82 |  |
| C[C@@H](O)[C@@H]1NC(=O)[C@@H]2CSSC[C@@H](C(=O)N[C@@H](CCCNC(=N)N)C(=O)N[C@@H](CCCNC(=N)N)C(=O)N[C@@H](Cc3ccc(O)cc3)C(=O)O)NC(=O)[C@H](CCC(N)=O)NC(=O)[C@H](Cc3ccc(O)c(I)c3)NC(=O)[C@H](CCCNC(N)=O)NC(=O)[C@H](CSSC[C@H](NC(=O)CN)C(=O)N2)NC(=O)[C@H](CCCNC(=N)N)NC(=O)[C@@H]2CCCN2C(=O)[C@H](CC(=O)O)NC1=O [Analog 6] | 120 fold | 8.39 |  |
| C[C@@H](O)[C@@H]1NC(=O)[C@@H]2CSSC[C@@H](C(=O)N[C@@H](Cc3ccccc3)C(=O)O)NC(=O)[C@H](CCC(N)=O)NC(=O)[C@H](Cc3ccc(O)c(I)c3)NC(=O)[C@H](CCCNC(N)=O)NC(=O)[C@H](CSSC[C@H](NC(=O)CN)C(=O)N2)NC(=O)[C@H](CCCNC(=N)N)NC(=O)[C@@H]2CCCN2C(=O)[C@H](CC(=O)O)NC1=O [Analog 7] | 470 fold | 8.98 |  |
| C[C@@H](O)[C@@H]1NC(=O)[C@@H]2CSSC[C@@H](C(=O)N[C@@H](Cc3c[nH]c4ccccc34)C(=O)O)NC(=O)[C@H](CCC(N)=O)NC(=O)[C@H](Cc3ccc(O)c(I)c3)NC(=O)[C@H](CCCNC(N)=O)NC(=O)[C@H](CSSC[C@H](NC(=O)CN)C(=O)N2)NC(=O)[C@H](CCCNC(=N)N)NC(=O)[C@@H]2CCCN2C(=O)[C@H](CC(=O)O)NC1=O [Analog 8] | 236 fold | 8.68 |  |
| C[C@@H](O)[C@@H]1NC(=O)[C@@H]2CSSC[C@@H](C(=O)N[C@@H](Cc3ccc(O)cc3)C(=O)N[C@@H](Cc3ccc(O)cc3)C(=O)O)NC(=O)[C@H](CCC(N)=O)NC(=O)[C@H](Cc3ccc(O)c(I)c3)NC(=O)[C@H](CCCNC(N)=O)NC(=O)[C@H](CSSC[C@H](NC(=O)CN)C(=O)N2)NC(=O)[C@H](CCCNC(=N)N)NC(=O)[C@@H]2CCCN2C(=O)[C@H](CC(=O)O)NC1=O [Analog 9] | 553 fold | 9.05 |  |
| C[C@@H](O)[C@@H]1NC(=O)[C@@H]2CSSC[C@@H](C(=O)N[C@@H](Cc3ccc(O)cc3)C(=O)N[C@@H](CCCNC(=N)N)C(=O)O)NC(=O)[C@H](CCC(N)=O)NC(=O)[C@H](Cc3ccc(O)c(I)c3)NC(=O)[C@H](CCCNC(N)=O)NC(=O)[C@H](CSSC[C@H](NC(=O)CN)C(=O)N2)NC(=O)[C@H](CCCNC(=N)N)NC(=O)[C@@H]2CCCN2C(=O)[C@H](CC(=O)O)NC1=O [Analog 10] | 598 fold | 9.08 |  |
| C[C@@H](O)[C@@H]1NC(=O)[C@@H]2CSSC[C@@H](C(=O)N[C@@H](Cc3ccc(O)cc3)C(=O)O)NC(=O)[C@H](CCC(N)=O)NC(=O)[C@H](Cc3ccc(O)c(I)c3)NC(=O)[C@H](CCCNC(=N)N)NC(=O)[C@H](CSSC[C@H](NC(=O)CN)C(=O)N2)NC(=O)[C@H](CCCNC(=N)N)NC(=O)[C@@H]2CCCN2C(=O)[C@H](CC(=O)O)NC1=O [Analog 11] | 1,123 fold |  |  |
| C[C@@H](O)[C@@H]1NC(=O)[C@@H]2C[Se]SC[C@@H](C(=O)N[C@@H](CCCNC(=N)N)C(=O)O)NC(=O)[C@H](CCC(N)=O)NC(=O)[C@H](Cc3ccc(O)c(I)c3)NC(=O)[C@H](CCCNC(N)=O)NC(=O)[C@H](CS[Se]C[C@H](NC(=O)CN)C(=O)N2)NC(=O)[C@H](CCCNC(=N)N)NC(=O)[C@@H]2CCCN2C(=O)[C@H](CC(=O)O)NC1=O [SEQ ID NO:20, GX4X4TDPRCX2X3QCR] | 5.7 fold |  | fold increase in potency on the human receptor (human α9α10 nAChR): 10 fold |
| GCCTDPRCRX3QCY [Analog 11] |  |  | burn-induced thermal hyperalgesia (Hargraves method) (Sprague Dawley rats): significantly reduced |
| GCCTDPRCX2X3QCRRR [Analog 4] |  |  | potency on the human receptor after further optimization of Analog 2 (human α9α10 nAChR): improved potency |
| GCCTDPRCX2X3QCY [Analog 3] |  |  | potency on the human receptor after further optimization of Analog 2 (human α9α10 nAChR): improved potency; analgesic effect in OXA chemotherapy induced neuropathic pain (Sprague-Dawley rats [1]): analgesic effect; efficacy on mechanical hyperalgesia 24 h after injection (Sprague-Dawley rats [2]): still significant; pain threshold (mechanical hyperalgesia) 30 min after injection (Sprague-Dawley rats [2]): acutely increased pain threshold; prevention of OXA-induced mechanical hyperalgesia (Sprague-Dawley rats [2]): significantly prevented; OXA-induced pain threshold decrease (von Frey), day 7, 30 min (Sprague-Dawley rats [3]): reverted; activity on mechanical allodynia (von Frey), days 14 and 21 (Sprague-Dawley rats [3]): active; analgesic effect (von Frey), day 7, 24 h later (Sprague-Dawley rats [3]): not observed; prevention of OXA-induced cold allodynia, day 7 (Sprague-Dawley rats [4]): able to prevent OXA-induced cold allodynia; prevention of OXA-induced cold allodynia, day 14 and 21 (Sprague-Dawley rats [4]): able to prevent OXA-induced cold allodynia |
